Results taken from patent US20040220131A1, “Method for treatment of cancerous angiogenic disorders” (The University of British Columbia, priority 2003, published 2004).

Legend:
HUVECS [1] = settings: by the induction of apoptosis; cited from earlier work
HUVECS [2] = assay: HUVEC cell viability (mts, absorbance 490 and 595 nm) after antisense with or without drug; type: cell-based, human
Method: HUVECS were grown for 2 days in wells after seeding at 1200 per well. Antisense oligonucleotide of Seq. ID No. 5 (4 μg/ml with lipofectin) was added in serum free medium and incubated with the cells for 4 hours. Then 100 μl of serum was added and incubation was continued overnight. The next day, 150 μl of drug solution in serum medium was added. After two days, 20 μl of mts solution was added and left for approximately 3 hours. Cell viability was determined as the difference between absorption at 490 and 595 nm.

[3] = Table 2, Drug alone (100 nM camptothecin)
[4] = Table 3, Drug alone (200 nM doxorubicin)
[5] = Table 1, Drug alone (100 nM paclitaxel)
[6] = Table 1 (paclitaxel series), AS 50 nM, no drug
[7] = Table 1 (paclitaxel series), AS 100 nM, no drug
[8] = Table 1 (paclitaxel series), AS 200 nM, no drug
[9] = Table 1, Drug (100 nM paclitaxel) + AS 50 nM
[10] = Table 1, Drug (100 nM paclitaxel) + AS 100 nM
[11] = Table 1, Drug (100 nM paclitaxel) + AS 200 nM
[12] = Table 2 (camptothecin series), AS 50 nM, no drug
[13] = Table 2 (camptothecin series), AS 100 nM, no drug
[14] = Table 2 (camptothecin series), AS 200 nM, no drug
[15] = Table 2, Drug (100 nM camptothecin) + AS 50 nM
[16] = Table 2, Drug (100 nM camptothecin) + AS 100 nM
[17] = Table 2, Drug (100 nM camptothecin) + AS 200 nM
[18] = Table 3 (doxorubicin series), AS 50 nM, no drug
[19] = Table 3 (doxorubicin series), AS 100 nM, no drug
[20] = Table 3 (doxorubicin series), AS 200 nM, no drug
[21] = Table 3, Drug (200 nM doxorubicin) + AS 50 nM
[22] = Table 3, Drug (200 nM doxorubicin) + AS 100 nM
[23] = Table 3, Drug (200 nM doxorubicin) + AS 200 nM

Compound: CC[C@@]1(O)C(=O)OCc2c1cc1n(c2=O)Cc2cc3ccccc3nc2-1 [camptothecin, reference compound]
- concentration range that inhibits Huvecs (HUVECS [1]): low nanomolar range
- absorbance at 490 nm (HUVECS [2]; [3]): 0.55
- absorbance at 595 nm (HUVECS [2]; [3]): 0.07

Compound: COc1cccc2c1C(=O)c1c(O)c3c(c(O)c1C2=O)C[C@@](O)(C(=O)CO)C[C@@H]3O[C@H]1C[C@H](N)[C@H](O)[C@H](C)O1 [doxorubicin, reference compound]
- concentration range that inhibits Huvecs (HUVECS [1]): low nanomolar range
- absorbance at 490 nm (HUVECS [2]; [4]): 0.74
- absorbance at 595 nm (HUVECS [2]; [4]): 0.08

Compound: CC(=O)O[C@H]1C(=O)[C@@]2(C)[C@H]([C@H](OC(=O)c3ccccc3)[C@]3(O)C[C@H](OC(=O)[C@H](O)[C@@H](NC(=O)c4ccccc4)c4ccccc4)C(C)=C1C3(C)C)[C@]1(OC(C)=O)CO[C@@H]1C[C@@H]2O [paclitaxel, reference compound]
- concentration range that inhibits Huvecs (HUVECS [1]): low nanomolar range
- absorbance at 490 nm (HUVECS [2]; [5]): 0.53
- absorbance at 595 nm (HUVECS [2]; [5]): 0.12

Compound: AS: Antisense oligonucleotide of Seq. ID No. 5, reduces the effective amount of clusterin (antisense CAGCAGCAGAGTCTTCATCAT; listed as DNA, chemistry not given here)
- cell viability, response to antisense in the presence of drug versus absence (HUVECS [2]; FIG. 1, in the presence of 100 nM paclitaxel): greater
- cell viability, response to antisense concentration (HUVECS [2]; FIG. 1, paclitaxel series): dose dependent response
- cell viability, response to antisense concentration (HUVECS [2]; FIG. 2, camptothecin series): dose dependent response
- cell viability, response to antisense in the presence of drug versus absence (HUVECS [2]; FIG. 2, in the presence of 100 nM camptothecin): greater
- cell viability, response to antisense concentration (HUVECS [2]; FIG. 3, doxorubicin series): dose dependent response
- cell viability, response to antisense in the presence of drug versus absence (HUVECS [2]; FIG. 3, in the presence of 200 nM doxorubicin): greater
- absorbance at 490 nm (HUVECS [2]; [6]): 0.66
- absorbance at 595 nm (HUVECS [2]; [6]): 0.04
- absorbance at 490 nm (HUVECS [2]; [7]): 0.40
- absorbance at 595 nm (HUVECS [2]; [7]): 0.09
- absorbance at 490 nm (HUVECS [2]; [8]): 0.28
- absorbance at 595 nm (HUVECS [2]; [8]): 0.07
- absorbance at 490 nm (HUVECS [2]; [9]): 0.50
- absorbance at 595 nm (HUVECS [2]; [9]): 0.09
- absorbance at 490 nm (HUVECS [2]; [10]): 0.24
- absorbance at 595 nm (HUVECS [2]; [10]): 0.04
- absorbance at 490 nm (HUVECS [2]; [11]): 0.17
- absorbance at 595 nm (HUVECS [2]; [11]): 0.05
- absorbance at 490 nm (HUVECS [2]; [12]): 0.66
- absorbance at 595 nm (HUVECS [2]; [12]): 0.10
- absorbance at 490 nm (HUVECS [2]; [13]): 0.39
- absorbance at 595 nm (HUVECS [2]; [13]): 0.06
- absorbance at 490 nm (HUVECS [2]; [14]): 0.21
- absorbance at 595 nm (HUVECS [2]; [14]): 0.04
- absorbance at 490 nm (HUVECS [2]; [15]): 0.53
- absorbance at 595 nm (HUVECS [2]; [15]): 0.07
- absorbance at 490 nm (HUVECS [2]; [16]): 0.31
- absorbance at 595 nm (HUVECS [2]; [16]): 0.08
- absorbance at 490 nm (HUVECS [2]; [17]): 0.15
- absorbance at 595 nm (HUVECS [2]; [17]): 0.05
- absorbance at 490 nm (HUVECS [2]; [18]): 0.66
- absorbance at 595 nm (HUVECS [2]; [18]): 0.07
- absorbance at 490 nm (HUVECS [2]; [19]): 0.35
- absorbance at 595 nm (HUVECS [2]; [19]): 0.05
- absorbance at 490 nm (HUVECS [2]; [20]): 0.22
- absorbance at 595 nm (HUVECS [2]; [20]): 0.04
- absorbance at 490 nm (HUVECS [2]; [21]): 0.66
- absorbance at 595 nm (HUVECS [2]; [21]): 0.06
- absorbance at 490 nm (HUVECS [2]; [22]): 0.32
- absorbance at 595 nm (HUVECS [2]; [22]): 0.04
- absorbance at 490 nm (HUVECS [2]; [23]): 0.18
- absorbance at 595 nm (HUVECS [2]; [23]): 0.02
